Here are results for eight compounds from patent US8735593B2, “Aminopyridines useful as inhibitors of protein kinases” (Vertex Pharmaceuticals Incorporated, priority 2007, dated 2014).

One assay has as its target GSK-3β (AA 1-420) (Homo sapiens (Human), UniProt P49841). Put plainly: GSK-3 Inhibition Assay (standard coupled enzyme system). In kind it is biochemical. To be noted: 20 μM ATP, 300 μM peptide, 20 nM GSK-3β, 30° C. The procedure: Compounds of the present invention were screened for their ability to inhibit GSK-3β (AA 1-420) activity using a standard coupled enzyme system (Fox et al., Protein Sci. 1998, 7, 2249). Reactions were carried out in a solution containing 100 mM HEPES (pH 7.5), 10 mM MgCl2, 25 mM NaCl, 300 μM NADH, 1 mM DTT and 1.5% DMSO. Final substrate concentrations in the assay were 20 μM ATP (Sigma Chemicals, St Louis, Mo.) and 300 μM peptide (American Peptide, Sunnyvale, Calif.). Reactions were carried out at 30° C. and 20 nM GSK-3β. Final concentrations of the components of the coupled enzyme system were 2.5 mM phosphoenolpyruvate, 300 μM NADH, 30 μg/ml pyruvate kinase and 10 μg/ml lactate dehydrogenase.
An assay stock buffer solution was prepared containing all of the reagents listed above with the exception of ATP and the test compound of the present invention. The assay stock buffer solution (175 μl) was incubated in a 96 well plate with 5 μl of the test compound of the present invention at final concentrations spanning 0.002 μM to 30 μM at 30° C. for 10 min. Typically, a 12-point titration was conducted by preparing serial dilutions (from 10 mM compound stocks) with DMSO of the test compounds of the present invention in daughter plates. The reaction was initiated by the addition of 20 μl of ATP (final concentration 20 μM). Rates of reaction were obtained using a Molecular Devices Spectramax plate reader (Sunnyvale, Calif.) over 10 min at 30° C. The Ki values were determined from the rate data as a function of inhibitor concentration.

The target in the next assay is GSK3β TYR 216 (Homo sapiens (Human), UniProt P49841). Put plainly: GSK3β p-TYR inhibition assay, western blotting of Jurkat cells. As to conditions: compound incubated o/n, read-out: GSK3b pTYR 216: IC50. In kind it is cell-based. As for the experimental part: (§1) Compounds are screened for their ability to inhibit the phosphorylation of tyrosine (TYR) residues through the use of western blotting of Jurkat cells dosed with the compounds. The phosphorylation of the specific TYR residues tested are GSK3α TYR 279 and GSK3β TYR 216.
Sequence of GSK3β TYR 216 (P49841 whole entry): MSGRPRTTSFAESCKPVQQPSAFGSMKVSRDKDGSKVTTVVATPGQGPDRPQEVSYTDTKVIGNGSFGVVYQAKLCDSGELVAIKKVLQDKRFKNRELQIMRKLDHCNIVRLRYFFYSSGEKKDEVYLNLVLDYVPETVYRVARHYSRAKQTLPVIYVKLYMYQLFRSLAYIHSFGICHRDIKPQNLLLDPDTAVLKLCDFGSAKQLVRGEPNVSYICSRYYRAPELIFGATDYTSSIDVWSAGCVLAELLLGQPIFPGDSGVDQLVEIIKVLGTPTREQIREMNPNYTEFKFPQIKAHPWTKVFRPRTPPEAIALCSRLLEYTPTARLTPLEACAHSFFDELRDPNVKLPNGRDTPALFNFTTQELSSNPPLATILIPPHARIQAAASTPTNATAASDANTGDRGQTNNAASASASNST
(§2) Jurkat cells are seeded at a density of 2×10^5 cells/well in a 12 well dish in starvation media (RPMI+1% FBS+P/S). Following starvation for 16 hours, the compound is dosed into each well at a final DMSO concentration of 0.3% and cells are incubated o/n at 37° C. 5% CO2. The next day, cells are spun down at 1500 rpm, washed with PBS, and lysed in 100 uL Laemli sample buffer with β-mercaptoethanol.
(§3) 15 microliters (uL) of cell lysates are loaded onto a 10% tris-glycine gel and run at 120 v for 2 hours or until dye front runs off of the gel. The protein is then transferred onto a PVDF membrane at 100 v for 60 min. PBST (PBS containing 0.1% Tween 20, such as 1 ml Tween per 1 L of PBS) is then made up and used for all washes and antibody incubations. The blot is blocked in 5% nonfat milk PBST for one hour.
(§4) The primary antibody (GSK-3α/β pTYR 279/216 at 1:1000 dilution Upstate cat#05-413) is then added in 5%-nonfat milk PBST overnight at 4° C. with gentle rocking. The blot is then washed in PBST for 5 min. This is then repeated 4 times. A secondary anti-mouse-HRP conjugated antibody (1:5000 dilution) is added for 60 min in 5% milk PBST. The blot is then washed in PBST for 5 min. This is also repeated 4 times. 3.0 mL of the developing solution (ECL plus Western Blotting Detection System from Amersham/GE cat# RPN2132) is made and then added. The solution is swirled over the blot for ˜30 sec. The blot is then developed using CL-Xposure clear blue X-ray film. GAPDH expression level is used as a loading control, (GAPDH antibody: santa cruz 25-778) at 1:10000 dilution.
(§5) For determination of GSK-3α and GSK-3β pTYR IC50, the density of the respective bands for each protein at specific compound concentration is compared to a no compound DMSO treated control cell sample present on each exposure. IC50 numbers are defined as the concentration of compound in which the density of the GSK-3α or GSK-3β band is 50% of the no compound control.
A general note: In western blotting, separated proteins are transferred to a membrane and probed.

Assay [1] concerns β-catenin dependent TCF/LEF transcriptional activity. Briefly: β-Catenin stabilization protocol, β-lactamase reporter assay in Jurkat cells. Type of assay: cell-based. As to conditions: Homo sapiens, 460/530 ratio 50% of the maximum effect, read-out: Beta Catenin IC50. From the text: GSK-3 phosphorylation of β-catenin targets it to the proteosome for degradation. Inhibition of GSK-3 results in accumulation of β-catenin in the cytosol of cells which through interaction with the transcription factor TCF/LEF translocates to the nucleus and drives the transcription of Wnt-dependent genes. The assay is designed to determine the level of β-catenin dependent TCF/LEF transcriptional activity in a quantitative manner through the use of a β-lactamase reporter assay in Jurkat cells dosed with a compound.
Jurkat β-catenin cells are starved overnight in assay media (1% FBS, 1× Penstrep, RPMI) in the flask. The next day Jurkat β-catenin cells are seeded in 96 well flat bottom plates at a density of 50,000 cells/well in assay media in a volume of 100 ul. The compound is added to the well at a final DMSO concentration of 0.75% and incubated at 37° C. o/n. The next day, 20 uL of 6×CCF4 dye is added to the wells and incubated at room temperature for 1-2 hours. Plates are read on the Cytofluor 4000 series multiwell plate reader and the 460/530 ratio is determined. The GSK-3 IC50 for induction of β-catenin is determined by plotting the 460/530 ratio against the concentration of compound (Log scale) and using the equation of the slope to calculate the point at which the ratio is 50% of the maximum effect.

Another assay deals with GSK3α TYR 279 (Homo sapiens (Human), UniProt P49840). Briefly: GSK-3α p-TYR inhibition assay, western blotting of Jurkat cells. Type of assay: cell-based. As to conditions: compound incubated o/n, read-out: GSK3a pTYR 279: IC50. As for the experimental part: as §1, §2, §3, §4, §5
Sequence of GSK3α TYR 279 (P49840 whole entry): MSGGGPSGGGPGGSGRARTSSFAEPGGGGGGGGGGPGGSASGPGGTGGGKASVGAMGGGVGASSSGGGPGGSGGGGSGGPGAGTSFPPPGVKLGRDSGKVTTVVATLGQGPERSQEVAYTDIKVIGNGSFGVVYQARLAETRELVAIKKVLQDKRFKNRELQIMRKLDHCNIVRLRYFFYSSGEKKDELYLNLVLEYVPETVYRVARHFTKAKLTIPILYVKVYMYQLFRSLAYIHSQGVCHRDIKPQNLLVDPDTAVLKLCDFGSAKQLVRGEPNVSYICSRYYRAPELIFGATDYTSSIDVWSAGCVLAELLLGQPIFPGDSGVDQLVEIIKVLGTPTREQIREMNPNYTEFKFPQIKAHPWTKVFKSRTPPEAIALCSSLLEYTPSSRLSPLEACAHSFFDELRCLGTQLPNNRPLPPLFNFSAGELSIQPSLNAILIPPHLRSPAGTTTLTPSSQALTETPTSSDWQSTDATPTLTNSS
The subject of assay [2] is amyloid-β peptide tissue levels. To be noted: mice over-expressing APP, treated over a three-week period; cited from earlier work.
Assay [3] concerns rat brains after transient middle cerebral artery occlusion (MCAO). To be noted: cited from earlier work.
The mark [4] stands for this setting: read-out: Ki value, inhibition of GSK-3.
Where [5] appears, read: read-out: Ki value, inhibition of GSK-3 (upper bound).

Read-outs that look alike come from different tables or passages of the source.

Sequence of GSK-3β (AA 1-420) (P49841 whole entry, species assumed, the tested form may be a part): as the sequence (P49841 whole entry) above

For orientation: Ki means a measure of affinity in units of concentration, obtained from inhibition or displacement. As a reminder, the IC50 is the point on the concentration scale where inhibition reaches its midpoint. For the compound `Cc1cc(Nc2n[nH]c3ncc(F)cc23)nc(-c2ccccc2)c1C` [Compound I-5], the Ki at GSK-3β (AA 1-420) (setting [4]) is at most 10 nM. For the same compound, the results for the IC50 (at GSK3β TYR 216; in assay [1]; on GSK3α TYR 279) were 20 nM, 1100 nM and 0.6 nM, respectively.
For `Fc1cnc2[nH]nc(Nc3cc(C(F)(F)F)cc(-c4ccccc4Cl)n3)c2c1` [Compound I-1, N-(6-(2-chlorophenyl)-4-(trifluoromethyl)pyridin-2-yl)-5-fluoro-1H-pyrazolo[3,4-b]pyridin-3-amine], the Ki at GSK-3β (AA 1-420) (setting [4]) was over 10 nM; at GSK-3β (AA 1-420) (setting [5]), at most 1000 nM. The values for the IC50 (at GSK3β TYR 216; in assay [1]; at GSK3α TYR 279) were 50 nM, 2080 nM and 3 nM, respectively.
For the compound `Cc1cc(Nc2n[nH]c3ncc(F)cc23)nc(-c2ccccc2Cl)c1C` [Compound I-2], the Ki on GSK-3β (AA 1-420) (setting [4]) was at most 10 nM. In addition, the IC50 on GSK3β TYR 216 was 200 nM; in assay [1], over 10000 nM; at GSK3α TYR 279 it was 10 nM.
As to `Cc1cc(Nc2ncc(C)s2)nc(-c2ccccc2Cl)c1` [Compound I-6], the Ki on GSK-3β (AA 1-420) (setting [4]) is over 10 nM; at GSK-3β (AA 1-420) (setting [5]) it was at most 1000 nM. In addition, in assay [1], the IC50 came out at 1300 nM.
Take `Cc1cc(Nc2n[nH]c3ncc(F)cc23)nc(-c2ccccc2Cl)c1` [Compound I-3]: the Ki at GSK-3β (AA 1-420) (setting [4]) was at most 10 nM. Further, the IC50 on GSK3β TYR 216 is 30 nM; in assay [1] it was 2700 nM; on GSK3α TYR 279 it was 2 nM.
As to `Cc1cc(-c2ccccc2Cl)nc(Nc2n[nH]c3ncc(F)cc23)c1C` [Compound I-4], the Ki was over 10 nM on GSK-3β (AA 1-420) (setting [4]) and at most 1000 nM on GSK-3β (AA 1-420) (setting [5]). For the same compound, the IC50 on GSK3β TYR 216 was 300 nM; at GSK3α TYR 279 it was 30 nM.
With `[Li]` [lithium], the “decrease in amyloid-β peptide tissue levels” value in assay [2] is given as over 50%.
Turning to “IGF-1: insulin growth factor-1, a known GSK-3 inhibitor”, in assay [3], the infarct size result is given as “reduced infarct size”.
